Results as given in patent US20120237600A1, “MULTILAYER PHARMACEUTICAL COMPOSITION THAT CAN BE DISPERSED IN WATER AND WHICH CONTAINS A COMBINATION OF ANTIMALARIAL AGENTS” (SANOFI, priority 2009, published 2012).

Test: Compatibility of artesunate and ferroquine combined within one and the same tablet
Format: physicochemical
Details: color of artesunate goes from white to brown
Description: However, artesunate and ferroquine are strongly incompatible if the two active ingredients are combined within one and the same tablet.

C[C@H]1[C@H](OC(=O)CCC(=O)O)O[C@@H]2O[C@@]3(C)CC[C@H]4[C@H](C)CC[C@@H]1[C@@]24OO3 [artesunate, Artesunate]
stability of artesunate when combined with ferroquine within the same tablet: rapid increase in the level of artesunate degradation products
